BigSolDB 2.1

NS(=O)(=O)Cc1noc2ccccc12
solubility (mole fraction)
Settings	273.15 K	278.15 K	283.15 K	288.15 K	293.15 K	298.15 K	303.15 K	308.15 K	313.15 K
in 1,4-dioxane	–	–	–	0.024	0.0294	0.0354	0.0416	0.0488	0.0563
in 2-butanone	0.0132	0.0154	0.0179	0.0209	0.0244	0.0282	0.0319	0.0358	0.0399
in DMF	0.0192	0.0278	0.0374	0.0469	0.0575	0.0687	0.0812	0.0946	0.108
in acetonitrile	0.00562	0.00691	0.00821	0.00982	0.0114	0.0131	0.0149	0.0171	0.0191
in cyclohexanone	0.00739	0.00898	0.0109	0.0129	0.0155	0.0184	0.0218	0.0262	0.0307
in ethanol	0.00112	0.00135	0.00159	0.00188	0.00221	0.00255	0.0029	0.0033	0.00373
in ethyl acetate	0.00498	0.00558	0.00625	0.00704	0.00793	0.00882	0.0098	0.0108	0.0118
in isopropanol	0.000617	0.000791	0.000996	0.00122	0.00146	0.00173	0.00207	0.00241	0.00274
in methanol	0.00253	0.00274	0.00298	0.00326	0.00353	0.00387	0.00421	0.0046	0.005
in n-butanol	0.00017	0.00026	0.000383	0.000528	0.000721	0.00095	0.00122	0.00148	0.00178
in n-propanol	0.00041	0.000546	0.000697	0.000862	0.00105	0.00126	0.00149	0.00175	0.002
in toluene	3.56e-05	5.05e-05	6.73e-05	8.69e-05	0.000106	0.000131	0.00016	0.000193	0.00023
